In brackets after ≈: the same amount, converted by molar mass.
What was measured:
[1] = Solubility in aqueous solution at various pH by shake-flask method; conditions: thermodynamic from solid
Description: An aqueous solution (containing either KCl 1M, KOH 1M or H2SO4 1M) is added over 100 mg of compound by 20 μL portions until complete solubilization. We obtain an approximate range of solubility values calculated as following:
Smax˜(m/M)/V; m=mass of evaluated compound (g); M=molar mass of evaluated compound (g·mol^−1); V=added volume (L).

[2] = Degradation study by 1H NMR of electrolyte heated at 40° C.; type: physicochemical
Description: This study consists of NMR ^1H measurements of an electrolyte heated at 40° C. and kept under stirring at 300 RPM using a magnetic stirrer.
Such behavior was detailed in the literature (WO 2019/157437) and is characteristic of a nucleophilic attack i.e. of OH^− in strong alkaline environment causing the functionalized arm to be cleaved.

[3] = Cycling tests of redox flow battery cells in constant power cycling mode; conditions: extrapolated from 5 days; flowrate 0.5 mL/min/cm^2; negolyte 120/120/40/370 mL
[4] = Cycling tests of redox flow battery cells in galvanostatic mode; conditions: Test 1: 0.5 M M3CH, pH 13.0
Description: General procedure: Cell tests were carried out on a BCS-815 battery cycler (Biologic) at room temperature. The redox flow battery cell was composed of an Aquivion® membrane (E98-09S Solvay) with an 80 μm thickness serving as separator sandwiched between two GFD porous graphite felts (SGL Carbon group, GFD 4.6 EA), 4.6 mm thick with an active area of 5 or 25 cm^2. The electrodes were inserted into 3 mm PVC frames surrounded by EPDM gaskets. The current collectors were made of graphite composite material provided by SGL and the assembly was compressed by two PVC end-plates. […]
Capacity utilization was calculated by determining the ratio of the discharge capacity to the theoretical capacity available in the electrolytes. Coulombic efficiency was calculated by determining the ratio of the discharge capacity to the charge capacity. Energy efficiency was calculated by determining the ratio of the discharge energy to the charge energy. The energy density was calculated by determining the ratio of the discharge energy to the total volume of posolyte (positive electrolyte) and negolyte (negative electrolyte). […]
At the end of charge, a rest of 24 hours at ocv was added before each discharge, allowing to quantify the self-discharge of this system in conditions close to its future application.

[5] = Cyclic voltammetry / linear sweep voltammetry, electrochemical parameters; type: physicochemical; conditions: for Peak-to-peak separation ΔEp: 100 mV/s, third cycle
Description: Cyclic voltammetry experiments were performed at a 100 mV/s scan rate for compounds M3CH, D3CH, D4CH, M3SH, D3SH, M4SH and D4SH in solution at pH 13 (KOH 0.1 M) or pH 14 (KOH 1 M).
The electrochemical experiments were conducted on an electrochemical working station (BioLogic Science Instruments VSP) at 25° C. using a three-electrodes electrochemical cell, where a Pt wire was employed at the counter electrode (CE), an Ag/AgCl/KCl saturated electrode immerged in a 1 M KOH solution protected from the cell by a porous frit glass served as the reference electrode (RE) and a rotating disc electrode (RDE) mounted with a glassy carbon (GC, 7.069 mm^2) disk was used as the working electrode (WE), respectively. The potential was reported relative to the normal hydrogen electrode (NHE), which was converted from the Ag/AgCl reference electrode (0.230 V versus NHE). The ohmic drop between the WE and RE is determined by current interrupt experiments and leads to a value close to 0.7069 Ω·cm^2. All cyclic voltammetry experiments were conducted by alleviating most of this resistance (85%) using the potentiostat manual ohmic drop compensation. Before each electrochemical measurement, the GC disk electrode was polished using SiC P4000 foil.
Each recorded cyclic voltammetry of the reduction and the oxidation process of a compound at a given scan rate is analyzed by measuring ip,a=anodic peak current; ip,c=cathodic peak current; v=scan rate; Ep,a=anodic peak potential; Ep,c=cathodic peak potential; ΔEp=Ep,a−Ep,c; the apparent standard redox potential E^0′=[…].
Linear sweep voltammetry (LSV) using the RDE at various rotation speed (400 up to 1 000 RPM) were performed to determine the averaged half-wave potential E1/2.
The oxidation (DO) and the reduction (DR) diffusion coefficients were calculated using Randles-Sevcik (RS) equation ip=0.4463·n^3/2·F^3/2·A·C·v^1/2·D^1/2·R^−1/2·T^−1/2=Cye·v^1/2·D^1/2, n=number of electrons exchanged during the redox process; F=faradaic number=96485 C·mol^−1; A=electrode active surface; C=redox active molecule concentration; R=gas constant=8.314 J·K^−1·mol^−1; T=bulk temperature=299 K. The experiments are conducted by cyclic voltammetry at various scan rates ranging from 10 mV/s up to 20 V/s.
A graphic of lip,al and lip,cl=f(Cte×v^1/2) is plotted, if the redox process is reversible and diffusion controlled, the peak current should be proportional to the square root of the scan rate. The diffusion coefficients (oxidation and reduction) are then calculated by taking the square of the regression lines slopes. Diffusion coefficients (oxidation and reduction processes) are evaluated by plotting the peak current versus a constant multiplied by the square root of the scan rate. The plots regression line gives a straight line with perfect correlation coefficient (100%) confirming that the redox process is reversible and diffusion controlled. The square of each slope gives the associated coefficient diffusion in cm^2 s^−1.
The apparent heterogeneous rate constant during oxidation (k^0′O)/and reduction (k^0′R) process was calculated using Gileadi's equation (C. Rüssel, W. Jaenicke, Electrochimica Acta, Vol 27, N° 12, 1745-1750, 1982) log k^0′=−0.48α+0.52 +log[(nFαvcD)/(2.303RT)]^1/2; vc is the critical scan rate, it is calculated by plotting the peak potentials versus the logarithm of the scan rates, and is more precise when a very wide range of scan rates is used, which is the case here (0.010 up to 20 V·s^−1), it is determined at the x-axis of the point of intersection of the regression lines drawn at low and high scan rates; a is the transfer coefficient that is supposed to be close to 0.5 for all presented compounds.
Peak-to-peak separation ΔEp values were determined from the third cycle of each cyclic voltammogram (FIGS. 1 and 2) and are gathered in the following table 4.
The standard redox process reversibility evaluation is performed in diluted state, at 5 mM of concentration, at pH 14 buffered with 1 M of KOH. […]

In the case of O=C(O)CCCOc1ccc(O)c2c1C(=O)c1ccccc1C2=O [Compound M3CH], the solubility ([1]; aqueous H2SO4 1M solution, pH 0, aqueous buffer) is reported as 310 mM (≈ 101 mg/mL), the solubility ([1]; aqueous KOH 1M solution, pH 14, aqueous buffer) is reported as 530 mM (≈ 173 mg/mL) and the degradation rate ([2]; 0.05 M, pH 13.9, 40° C.) is reported as “roughly 15 % per month”. The “degradation after a month” value ([2]; 0.4 M, pH 13.5, 0.8 M KOH, 0.3 M NaOH, 40° C.) was “did not undergo any degradation”, the “Stability in cycles (−20%)” value [3] was 28449 cycles and the “Stability in days (−20%)” value [3] was 10942.1 days. The solubility over state-of-charge [4] was “soluble at every state-of-charge”, the “E^0′ apparent standard redox potential” value ([5]; 5 mM, pH 14, 1 M KOH) was −0.484 V vs NHE and the E1/2 half-wave potential ([5]; 5 mM, pH 14, 1 M KOH, RDE) was −0.484 V vs NHE. The “k^0′O × 10^−2 apparent heterogeneous rate constant” value ([5]; Gileadi's equation) was 2.3 × 10^−2 cm/s, the “DO × 10^−6 diffusion coefficient” value ([5]; Randles-Sevcik) was 5.2 × 10^−6 cm^2/s and the “Peak-to-peak separation ΔEp” value ([5]; pH 13 (KOH 0.1 M)) was 140 mV. For the same molecule, the “Peak-to-peak separation ΔEp” value ([5]; pH 14 (KOH 1 M)) was 31 mV.

Reference: patent US12438175B2, “Aqueous organic-based electrolyte for redox flow battery” (KEMIWATT, priority 2019, dated 2025)
